Assay results published in publication PMC12203311, “Design, synthesis, in silico and in vitro evaluation of pyrrole–indole hybrids as dual tubulin and aromatase inhibitors with potent anticancer activities” (RSC Advances, 2025).

Experiments:
[1] = tested on: K-562; test: NCI60 five-dose screen; format: cell-based; conditions: Homo sapiens, K562, K-562, leukemia
[2] = tested on: A549/ATCC; test: NCI60 five-dose screen; format: cell-based; conditions: Homo sapiens, NSC lung cancer
[3] = tested on: HOP-62; test: NCI60 five-dose screen; format: cell-based; conditions: Homo sapiens, HOP-62, NSC lung cancer
[4] = tested on: HOP-92; test: NCI60 five-dose screen; format: cell-based; conditions: Homo sapiens, HOP-92, NSC lung cancer
[5] = tested on: NCI-H226; test: NCI60 five-dose screen; format: cell-based; conditions: Homo sapiens, NCI-H226, NSC lung cancer
[6] = tested on: NCI-H460; test: NCI60 five-dose screen; format: cell-based; conditions: Homo sapiens, NCI-H460, NSC lung cancer
[7] = tested on: HCT-116; test: NCI60 five-dose screen; format: cell-based; conditions: Homo sapiens, HCT-116, colon cancer
[8] = tested on: HCT-15; test: NCI60 five-dose screen; format: cell-based; conditions: Homo sapiens, HCT-15, colon cancer
[9] = tested on: HT29; test: NCI60 five-dose screen; format: cell-based; conditions: Homo sapiens, HT-29, HT29, colon cancer
[10] = tested on: SF-539; test: NCI60 five-dose screen; format: cell-based; conditions: Homo sapiens, SF-539, CNS cancer
[11] = tested on: SNB-75; test: NCI60 five-dose screen; format: cell-based; conditions: Homo sapiens, SNB-75, CNS cancer
[12] = tested on: LOX IMVI; test: NCI60 five-dose screen; format: cell-based; conditions: Homo sapiens, melanoma
[13] = tested on: OVCAR-3; test: NCI60 five-dose screen; format: cell-based; conditions: Homo sapiens, OVCAR-3, ovarian cancer
[14] = tested on: OVCAR-4; test: NCI60 five-dose screen; format: cell-based; conditions: Homo sapiens, OVCAR-4, ovarian cancer
[15] = tested on: A498; test: NCI60 five-dose screen; format: cell-based; conditions: Homo sapiens, A498, renal cancer
[16] = tested on: ACHN; test: NCI60 five-dose screen; format: cell-based; conditions: Homo sapiens, renal cancer
[17] = tested on: CAKI-1; test: NCI60 five-dose screen; format: cell-based; conditions: Homo sapiens, CAKI-1, renal cancer
[18] = tested on: PC-3; test: NCI60 five-dose screen; format: cell-based; conditions: Homo sapiens, PC-3, prostate cancer
[19] = tested on: DU-145; test: NCI60 five-dose screen; format: cell-based; conditions: Homo sapiens, DU-145, prostate cancer
[20] = tested on: BT-549; test: NCI60 five-dose screen; format: cell-based; conditions: Homo sapiens, BT-549, breast cancer
[21] = tested on: T47D breast cancer cell line; test: Cytotoxicity MTT assay, T47D; format: cell-based, human; conditions: Homo sapiens, T47D; MTT, 48 hours
Method in brief: (§1)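 10 000 cells/well, overnight attachment; compound 48 h in DMEM/10% FBS, 37 °C, 5% CO2. MTT 0.5 mg mL^−1, 3 h; formazan in DMSO; A570. % viability vs DMSO vehicle.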

[22] = Cytotoxicity MTT assay, L929; format: cell-based, mouse; conditions: mouse, L929 fibroblast cells; MTT, 48 hours
Method in brief: as §1

[23] = tested on: L929 normal mouse fibroblast cell line; test: Cytotoxicity MTT assay, L929; format: cell-based; conditions: IC50 (L929)/IC50 (T47D)
Method in brief: as §1

[24] = read-out: LC50 (the source's name)

With `Cc1cc(C)c(/C=N/NC(=O)c2[nH]c3ccc(Br)cc3c2-c2ccccc2)[nH]1` [Derivative 3c, (E)-5-Bromo-N′-((3,5-dimethyl-1H-pyrrol-2-yl)methylene)-3-phenyl-1H-2-carbohydrazide] the GI50 [1] was 2.43 µM, the CC50 [1, 24] was over 100 µM and the GI50 [2] was 3.82 µM. It also gave a CC50 [2, 24] of 45.4 µM, a GI50 [3] of 2.97 µM and a CC50 [3, 24] of 69.3 µM. For the same compound, the GI50 [4] was 2.61 µM, the CC50 [4, 24] was 43.5 µM and the GI50 [5] was 2.58 µM. It also gave a CC50 [5, 24] of 34.4 µM, a GI50 [6] of 2.83 µM and a CC50 [6, 24] of 37.9 µM. The GI50 [7] was 4.02 µM, the CC50 [7, 24] was over 100 µM and the GI50 [8] was 2.91 µM. The CC50 [8, 24] was 37.2 µM, the GI50 [9] was 3.53 µM and the CC50 [9, 24] was 46.6 µM. The GI50 [10] was 2.93 µM, the CC50 [10, 24] was 32.4 µM and the GI50 [11] was 2.68 µM. The CC50 [11, 24] was 43.9 µM, the GI50 [12] was 2.43 µM and the CC50 [12, 24] was 30.2 µM. It also gave a GI50 [13] of 2.53 µM, a CC50 [13, 24] of 36.4 µM and a GI50 [14] of 3.55 µM. The CC50 [14, 24] was 40.7 µM, the GI50 [15] was 8.25 µM and the CC50 [15, 24] was 46.9 µM. The GI50 [16] was 3.03 µM, the CC50 [16, 24] was 34.2 µM and the GI50 [17] was 3.17 µM. The CC50 [17, 24] was 39.1 µM, the GI50 [18] was 2.06 µM and the CC50 [18, 24] was 47.6 µM. The GI50 [19] was 4.07 µM, the CC50 [19, 24] was 38.9 µM and the GI50 [20] was 5.04 µM. For the same compound, the CC50 [20, 24] was 47.9 µM, the IC50 [21] was 11.6 ± 0.3 µM and the IC50 at 48 h [22] was 29.5 ± 12.6 µM. The “Selectivity index (SI)” value [23] was 2.54.
